Measured values from US10752588B2 (The Broad Institute, Inc., priority 2014, dated 2020).

Key:
human D2R/β-arrestin [1] = molecular target: T1, human D2R/β-arrestin (Homo sapiens (Human), UniProt P14416); test: β-Arrestin agonist assay (PathHunter); assay type: cell-based; conditions: CHO-K1 cell line expressing human D2R/β-arrestin
Method in brief: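 After compound incubation, detection reagent (Buffer:Emerald II:Galactor-Star, 19:5:1) added and luminescence or fluorescence read.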

human D2R/β-arrestin [2] = molecular target: T1, human D2R/β-arrestin; test: Gi/cAMP agonist assay (Lance Ultra cAMP, Forskolin); assay type: cell-based; conditions: CHO-K1 cell line expressing human D2R/β-arrestin
Method in brief: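 Cells were plated and incubated before compounds were pin-transferred and incubated for 10 min at 37 °C. Forskolin was then added to stimulate cAMP. cAMP was detected by Lance Ultra TR-FRET using Eu-cAMP tracer and ULight-anti-cAMP antibody.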

human D2R/β-arrestin [3] = molecular target: T1, human D2R/β-arrestin; test: cell-based; conditions: β-arrestin Antagonist
Description: The detection reagents are then added, and the read-out is detected.
Cells were prepared for assays by growing cultures for up to 2 weeks (from about 6-20 passages). A vial of frozen cells was thawed in a water bath held at 37° C. The cells were then transferred into a 50 ml tube with 10 ml growth media. The vial was rinsed with growth media and the contents transferred to the 50 ml tube. The 50 ml tube was centrifuged at 1200 rpm for 5 minutes at room temperature. […] When the cells reached about 90% confluence (approximately 3 days between passages), the cells were passaged and used for either the agonist or antagonist assays as described below.
The cells were prepared for β-arrestin assays as described above. The assays were performed using a PathHunter® β-Arrestin Detecting Kit (DiscoveRX). The cells were grown on 225 mm dishes, then washed once with 1×PBS (Cellgro), followed by digestion with 2.5 ml 1× Detachment reagent (DRX 92-0009) for approximately 2 minutes.

human D2R/β-arrestin [4] = molecular target: T1, human D2R/β-arrestin; test: cell-based; conditions: cAMP Antagonist
[5] = CHO-K1 cell line expressing human D2R/β-arrestin, quinpirole used as agonist

T1 sequence (P14416 whole entry): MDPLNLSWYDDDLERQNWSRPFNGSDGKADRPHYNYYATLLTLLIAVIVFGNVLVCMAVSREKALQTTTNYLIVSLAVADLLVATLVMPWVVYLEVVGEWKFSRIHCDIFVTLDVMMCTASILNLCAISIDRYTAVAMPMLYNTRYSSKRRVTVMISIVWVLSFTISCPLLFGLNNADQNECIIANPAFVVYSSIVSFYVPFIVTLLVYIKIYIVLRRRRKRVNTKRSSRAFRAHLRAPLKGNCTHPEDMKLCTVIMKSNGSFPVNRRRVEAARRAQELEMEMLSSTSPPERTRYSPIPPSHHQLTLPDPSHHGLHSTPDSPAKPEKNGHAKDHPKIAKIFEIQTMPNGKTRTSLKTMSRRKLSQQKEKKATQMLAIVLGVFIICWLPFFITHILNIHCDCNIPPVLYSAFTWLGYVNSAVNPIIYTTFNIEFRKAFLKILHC

Compound	EC50 (human D2R/β-arrestin [1])	EC50 (human D2R/β-arrestin [2])	IC50 (human D2R/β-arrestin [3]; [5])	IC50 (human D2R/β-arrestin [4]; [5])	IC50 (human D2R/β-arrestin [3])	IC50 (human D2R/β-arrestin [4])
O=C(NC(c1ccc(Cl)cc1)c1ccccc1F)C1CCN(CCOc2cc(F)ccc2F)CC1 (stereo not shown) [Compound 123, N-((4-chlorophenyl)(2-fluorophenyl)methyl)-1-(2-(2,5-difluorophenoxy)ethyl) piperidine-4-carboxamide]	> 30 µM	< 100 nM	100 to 1000 nM	> 30000 nM		
O=C(NC(c1ccc2c(c1)OC(F)(F)O2)c1ccccn1)C1CCN(CCOc2ccc(F)cc2F)CC1 (stereo not shown) [Compound 130, N-((2,2-difluorobenzo[d][1,3]dioxol-5-yl)(pyridin-2-yl)methyl)-1-(2-(2,4-difluorophenoxy)ethyl)piperidine-4-carboxamide]	0.1 to 1 µM	< 100 nM	1000 to 10000 nM	> 30000 nM		
COc1cccc(OCCN2CCC(C(=O)NC(c3ccc(Cl)cc3)c3ccccn3)CC2)c1 (stereo not shown) [Compound 12, N-((4-chlorophenyl) (pyridin-2-yl)methyl)-1-(2-(3-methoxyphenoxy)ethyl) piperidine-4-carboxamide]	> 30 µM	10000 to 30000 nM	1000 to 10000 nM	100 to 1000 nM		
COc1cccc(C(NC(=O)C2CCN(CCOc3cc(F)ccc3F)CC2)c2ccccn2)c1 (stereo not shown) [Compound 90, 1-(2-(2,5-difluorophenoxy)ethyl)-N-((3-methoxyphenyl)(pyridin-2-yl)methyl) piperidine-4-carboxamide]	> 30 µM	1000 to 10000 nM	1000 to 10000 nM	1000 to 10000 nM		
CC(C)N(CC1CCN(CCOc2ccccc2F)CC1)C(c1ccc(Cl)cc1)c1ccccn1 (stereo not shown) [Compound 133, N-((4-chlorophenyl)(pyridin-2-yl)methyl)-N-((1-(2-(2-fluorophenoxy)ethyl)piperidin-4-yl)methyl)propan-2-amine]	> 30 µM	< 100 nM	< 100 nM	< 100 nM		
Fc1ccc(OCCN2CCC(CNC(c3ccc(Cl)cc3)c3ccccn3)CC2)cc1 (stereo not shown) [Compound 132, 1-(4-chlorophenyl)-N-((1-(2-(4-fluorophenoxy)ethyl)piperidin-4-yl)methyl)-1-(pyridin-2-yl)methanamine]	> 30 µM	> 30000 nM	1000 to 10000 nM	1000 to 10000 nM		
O=C(NC(c1ccc(Cl)cc1)c1ccccn1)C1CCN(CC2COc3ccccc3O2)CC1 (stereo not shown) [Compound 140, N-((4-chlorophenyl)(pyridin-2-yl)methyl)-1-((2,3-dihydrobenzo[b][1,4]dioxin-2-yl)methyl)piperidine-4-carboxamide]	> 30 µM	1000 to 10000 nM	1000 to 10000 nM	1000 to 10000 nM		
CN1CCC(C(=O)NC(c2ccc(Cl)cc2)c2ccccn2)CC1 (stereo not shown) [Compound 64, N-((4-chlorophenyl)(pyridin-2-yl)methyl)-1-methylpiperidine-4-carboxamide]	> 30 µM	> 30000 nM	10000 to 30000 nM	1000 to 10000 nM		
O=C(NC(c1ccc(Cl)cc1)c1ccccn1)C1CCN(CCOc2cccc(F)c2)CC1 (stereo not shown) [Compound 4]	> 30 µM	< 100 nM	100 to 1000 nM	> 30000 nM		
CC(C)N(CC1CCN(CCOc2ccccc2)CC1)C(c1ccc(Cl)cc1)c1ccccn1 (single isomer, unassigned) [Compound 103a, N-((4-chlorophenyl)(pyridin-2-yl)methyl)-N-((1-(2-phenoxyethyl)piperidin-4-yl)methyl)propan-2-amine]	> 30 µM	100 to 1000 nM			100 to 1000 nM	< 100 nM
CN(CC1CCN(CCOc2ccccc2)CC1)C(c1ccc(F)cc1)c1ccccn1 (single isomer, unassigned) [Compound 74b, 1-(4-fluorophenyl)-N-methyl-N-((1-(2-phenoxyethyl)piperidin-4-yl)methyl)-1-(pyridin-2-yl)methanamine]	> 30 µM	100 to 1000 nM	100 to 1000 nM	100 to 1000 nM		
O=C1CCc2ccc(OCCCCN3CCCN(c4cccc(Cl)c4Cl)CC3)nc2N1 [UNC9975, reference compound]	> 30 µM	< 100 nM	100 to 1000 nM	100 to 1000 nM		
Fc1ccc(F)c(OCCN2CCC(CNC(c3ccc(Cl)cc3)c3ccccn3)CC2)c1 (single isomer, unassigned) [Compound 89b, 1-(4-chlorophenyl)-N-((1-(2-(2,5-difluorophenoxy)ethyl)piperidin-4-yl)methyl)-1-(pyridin-2-yl)methanamine]	> 30 µM	100 to 1000 nM	1000 to 10000 nM	10000 to 30000 nM		
